Patent US4774242A, “Tetrahydrobenz(c,d)indoles and pharmaceutical use” (Roussel Uclaf, priority 1986, dated 1988)

What was measured:
dopaminergic receptors = target: T1, dopaminergic receptors (Rattus norvegicus, UniProt P61169); experiment: Affinities for the dopaminergic receptors (displacement of spiroperidol 3H, rat striated bodies); format: binding; conditions: rat striatum, relative to haloperidol = 100, from concentrations inhibiting 50% of specific fixation
T1 construct: Striated bodies removed from the brains of 6 male rats; from tissue; host or cells: rat striatum (striated bodies), membrane fraction
T1 sequence (P61169 whole entry): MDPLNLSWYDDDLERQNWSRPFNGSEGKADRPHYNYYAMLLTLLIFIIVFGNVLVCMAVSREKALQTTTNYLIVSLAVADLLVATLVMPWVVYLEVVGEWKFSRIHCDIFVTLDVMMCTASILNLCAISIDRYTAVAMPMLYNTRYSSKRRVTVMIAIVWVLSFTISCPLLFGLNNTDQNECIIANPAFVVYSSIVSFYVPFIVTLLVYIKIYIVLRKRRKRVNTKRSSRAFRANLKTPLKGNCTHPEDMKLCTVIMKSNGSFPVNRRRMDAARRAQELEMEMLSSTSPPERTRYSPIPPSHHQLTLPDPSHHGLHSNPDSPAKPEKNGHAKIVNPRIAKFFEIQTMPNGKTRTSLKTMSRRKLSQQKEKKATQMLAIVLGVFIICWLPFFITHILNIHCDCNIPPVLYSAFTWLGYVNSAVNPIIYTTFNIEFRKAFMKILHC
Method: Striated bodies removed from the brains of 6 male rats weighing an average of 150 g were homogenized at one-twentieth (weight/volume) in 0.32M sucrose. After centrifuging the homogenized mixture at 1000 g for 10 minutes at 0° C., the supernatant was centrifuged at 30,000 g for 15 minutes at +4° C. The residue was taken up in 25 ml of Tris HCl 50 mM pH 7.7 buffer and centrifuged at 30,000 g for 15 minutes at +4° C. The new residue was taken up in 50 ml of Krebs Tris HCl pH 7.3 buffer and the suspension was pre-incubated for 10 minutes at 37° C. Then it was incubated for 29 minutes on a water-bath at +37° C. in the presence of spiroperidol ^3 H alone, with an excess of haloperidol, and with increasing concentrations of the test product. The incubated suspensions were filtered on Whatman GF/C and the filters were washed three times with 5 ml of Tris HCl 50 mM buffer. The radioactivity of the filters is measured by liquid scintillation. The non-specific fixation was determined in parallel by incubation of spiroperidol ^3 H in the presence of an excess of haloperidol. The affinity of the product tested for the dopaminergic receptors is given relative to haloperidol as reference product,
CD=concentration of cold haloperidol inhibiting 50% of the specific fixation of the spiroperidol ^3 H,
CX=concentration of the product under test inhibiting 50% of the specific fixation of the piroperidol ^3 H.
The relative affinity was determined by the relation: [formula]

[1] = Study of the acute toxicity (LD0); format: in vivo; conditions: oral, mice, maximal dose not causing any mortality over 8 days
Method: The lethal doses LD0 of the different compounds tested was evaluated after oral administration in mice and the maximal dose not causing any mortality over 8 days was called the LD0.

enolase γγ = experiment: Antianoxic activity: enolase test (kainic acid lesions); format: in vivo; conditions: intraperitoneal, upwards of a dose of 1 mg/kg, 1 hour after kainic acid, mice
Method: Suffering cerebral cells release enolase γγ which is a specific indicator of neuronal lesions. In the test, the lesions were carried out in mice by subcutaneous injection of 35/mg/kg of kainic acid.

arterial pressure = experiment: Determination of hypotensive activity (carotid arterial pressure, anesthetized rats); format: in vivo, male rats of WISTAR strain; conditions: 0.01 mg/kg intravenous, anesthetized male Wistar rats
Method: The hypotensive activity was studied in male rats of WISTAR strain weighing about 300 g and anesthetized with nembutal (50 mg/kg by intraperitoneal route). The test product was administered intravenously in the jugular vein. The arterial pressure in the carotid was measured before and after administration of the test product. The following table indicates the variations expressed in percentage of the arterial pressure after administration of the product under test relative to the initial control arterial pressure.

Compound | Relative affinity (Haloperidol = 100) (dopaminergic receptors) | LD0 [1] [mg/kg] | seral concentration of enolase (enolase γγ) | % Variations of the arterial pressure 5 minutes after administration (arterial pressure) [%]
CN1CCO[C@@H]2c3c[nH]c4cccc(c34)C[C@H]21 (relative stereo) [Example 4, (d,l trans) 2,6a,7,8,9,10a-hexahydro-7-methyl 6H-indol-[4,3-g,h]-1,4-benzoxazine] | 0.4 | – | – | –
c1cc2c3c(c[nH]c3c1)[C@H]1OCCN[C@@H]1C2 (relative stereo) [Example 2, (dl-trans) 2,6,6a,7,8,9,10a-hexahydro-6H-indol-[4,3-g,h]-1,4-benzoxazine] | 0.09 | > 200 | – | –
CCCN1CCO[C@@H]2c3c[nH]c4cccc(c34)C[C@H]21 (relative stereo) [Example 3, (dl-trans) 2,6a,7,8,9,10a-hexahydro-7-propyl-6H-indol-[4,3-g,h]-1,4-benzoxazine] | 13 | 100 | reduced the seral concentration of enolase | < -40
